The source of these data is patent publication EP0100569A1, “Spasmolytically active (+)S-enantiomer of secoverine” (DUPHAR INT[…] B.V, priority 1982, dated 1984).

Structures can show the parent of a compound that is named as a salt.

For one assay, the system named is vas deferens of the rat. As to the kind of experiment: Potentiation of the activity of noradrenaline on the vas deferens in vitro. It is filed as cell-based. The note with it: for EC (2-fold shift): Rattus norvegicus, negative logarithm of the molar concentration giving a shift to the left of a factor 2 of the noradrenaline curve, read-out: pP2-value (converted); for noradrenaline potentiation: rat vas deferens in vitro. The source says:
The test used is a modification of the method as described by Ursillo and Jacobsen, J. Pharmacol. Ex. Ther. 148, (1965), 247.
The smallest dose which gave a potentiating effect was […], and the potentiating activity was maximum in a quantity of 5 x 10 7M. Higher dosages caused a non--specific decrease of the maximum of the noradrenaline curve.
For quantifying the effect at the 50% point of the contraction curve (maximum of the control noradrenaline curve = 100%), the shift of the curve obtained with the compound to be tested (expressed as DR) was measured. The pP2-values were calculated in the same manner as the pA2-values mentioned sub b), according to the equation
^pP2 ^= -log [secoverine] + log (DR-1).

In another assay the test system is cornea of male mice. As to the kind of experiment: Local anaesthetic activity on the cornea. The assay is classed as in vivo. The note with it: concentration of solution giving local anaesthesia in 50% of the animals, 10 per dose, determined graphically. The method, then: The anaesthetic activity on the cornea of male mice (18-22 g), 10 animals per dose, was determined according to the method by Weidmann and Petersen, J. Pharmacol. Exp. Ther., 115 (1955), 246. The concentration of the solution of the compounds which gave local anaesthesia in 50% of the animals was determined graphically (EC50--value): […]

In a further assay the test system is rat jejunum. As to the kind of experiment: Peripheral spasmolytic activity in vitro, furtrethonium as spasmogen. The assay is classed as cell-based. The procedure:
(§1) The required organs were isolated from killed guinea pigs and the contents and adherent tissues were carefully removed from suitable pieces. The said organs were then suspended in a bath containing 50 ml of Tyrode solution through which oxygen was led. The spasmogenically active substance (carbachol) was added to the bath inter- mittem tly and, after a constant response to the spasmogen had been obtained, the spasmolytic activity of the substances to be tested was measured by adding them to the bath 30 seconds prior to the spasmogen.
Similar results were obtained by using rat jejunum as an organ and using furtrethonium as a spasmogenically active substance: the (+)-enantiomer of secoverine now was 2.10 times as active as the racemate.

The subject of another assay is guinea pig ileum. As to the kind of experiment: Peripheral spasmolytic activity in vitro, 4-point analysis, carbachol as spasmogen. The assay is classed as cell-based. The procedure: These tests were carried out according to the normal 4--point analysis in which the termina-1 guinea pig ileum was used as isolated organ and carbachol was used as a cholinergic spasmogen.
as §1
The relative activity of the (+)-enantiomer of secoverine as compared with the racemate was calculated fron, a series of 4-point assays: the (+)-enantiomer of secoverine was 1.86 times as active as the racemate.

For the next assay, the system named is guinea pigs. As to the kind of experiment: Anticholinergic activity in vivo, carbachol as spasmogen. The note with it: i.v. The procedure: These tests were carried out according to the method by J.M.A. Zwagemakers, Arzneimittelforschung, 30 (II), (1980), 1517-1526 in which carbachol was used as a spasmogenically active substance. After a constant response to the spasmogen had been obtained, the compound to be tested was administered intravenously (i.v.) to guinea pigs 3 minutes prior to the next quantity of spasmogenically active substance. The activity of the compounds was determined for 52 minutes. Contractions obtained after preceding administration of the substance to be tested were expressed as percentages of the average of two control values and were plotted graphically. The average percentage of inhibition during the period of 52 minutes was calculated from the area under the curve, and the maximum inhibition and the duration of the spasmolytic activity were estimated by means of the time-contraction curve. The spasmolytic activity is considered to be terminated when two successive contractions show less than 20% inhibition.

With `CCN(CCCC(=O)C1CCCCC1)[C@@H](C)Cc1ccc(OC)cc1` [(+)-enantiomer of secoverine, (+)S-1-cyclohexyl-4-[ethyl(p-methoxy-α-methylphenethyl)--amino]-l-butanone hydrochloride], in the assay with vas deferens of the rat, the EC (2-fold shift) is 0.263 µM and the noradrenaline potentiation result is “significant noradrenaline potentiation”. In the assay on cornea of male mice, the “EC50-value (% w/vol)” value came out at 0.20 % w/vol. In addition, the “relative activity as compared with the racemate” value in the assay with rat jejunum turned out to be 2.10 times. The “relative activity as compared with the racemate” value with guinea pig ileum (guinea pig ileum, carbachol, series of 4-point assays) is reported as 1.86 times. Also, the “anticholinergic spasmolytic activity in peripheral organs relative to the racemate” value with guinea pig ileum (summary statement) was “approximately twice as strong”. Further, in the assay with guinea pigs, the “activity in vivo relative to the racemate” value is listed as “about twice as active”.

On to `CCN(CCCC(=O)C1CCCCC1)C(C)Cc1ccc(OC)cc1` (racemic) [racemate], for which, in the assay on vas deferens of the rat, the EC (2-fold shift) is 0.309 µM and the noradrenaline potentiation result is given as “significant noradrenaline potentiation”. Further, the “EC50-value (% w/vol)” value with cornea of male mice was 0.13 % w/vol.

As to `CCN(CCCC(=O)C1CCCCC1)[C@H](C)Cc1ccc(OC)cc1` [(-)-enantiomer of secoverine], in the assay on vas deferens of the rat, the EC (2-fold shift) was 0.17 µM and the noradrenaline potentiation result was “significant noradrenaline potentiation”. For the same compound, the “EC50-value (% w/vol)” value with cornea of male mice turned out to be 0.08 % w/vol.
